Here are results for eight molecules from ChEMBL document CHEMBL1159107, “Novel semisynthetic spin-labeled derivatives of podophyllotoxin with cytotoxic and antioxidative activity” (Bioorg Med Chem Lett, 2010).

Test [1] deals with Heart. The test can be described thus: Antioxidant activity in Sprague-Dawley rat heart assessed as inhibition of malonaldehyde. Format: functional, tissue-based.
In test [2] the test system is Liver. The test can be described thus: Antioxidant activity in Sprague-Dawley rat liver assessed as inhibition of malonaldehyde. It counts as functional, tissue-based.
Test [3] concerns Kidney. Nature of the test: Antioxidant activity in Sprague-Dawley rat kidney assessed as inhibition of malonaldehyde. Format: functional, tissue-based.
The subject of test [4] is HL-60. The test can be described thus: Cytotoxicity against human HL60 cells after 48 hrs. Format: functional, cell-based. As to conditions: HL-60, 48 h.
The test system of test [5] is RPMI-8226. Nature of the test: Cytotoxicity against human RPMI8226 cells after 48 hrs. Format: functional, cell-based. The settings on record: RPMI-8226, 48 h.
The subject of test [6] is A549. The test can be described thus: Cytotoxicity against human A549 cells after 48 hrs. Format: functional, cell-based. The settings on record: A549, 48 h.

One may read the IC50 as the point on the concentration scale where inhibition reaches its midpoint. `COc1cc([C@@H]2c3cc4c(cc3[C@@H](NC(=O)[C@@H](NC(=O)OC3CC(C)(C)N([O])C(C)(C)C3)C(C)O)[C@H]3COC(=O)[C@H]23)OCO4)cc(OC)c1O` (some centres not stated): the IC50 in test [1] was 8790 nM; in test [2], 7120 nM; in test [3], 7450 nM; in test [4] it was 210 nM; in test [5], 78 nM; in test [6], 210 nM.

On to `COc1cc([C@@H]2c3cc4c(cc3[C@@H](NC(=O)[C@H](CC(C)C)NC(=O)OC3CC(C)(C)N([O])C(C)(C)C3)[C@H]3COC(=O)[C@H]23)OCO4)cc(OC)c1O`, for which the IC50 was 8850 nM in test [2]; 8470 nM in test [3]; 160 nM in test [4]; 89 nM in test [5]; 190 nM in test [6].

On to `COc1cc([C@@H]2c3cc4c(cc3[C@@H](NC(=O)[C@H](C)NC(=O)OC3CC(C)(C)N([O])C(C)(C)C3)[C@H]3COC(=O)[C@H]23)OCO4)cc(OC)c1O`, for which the IC50 in test [1] worked out at 6390 nM; in test [2], 7640 nM; in test [3], 7680 nM; in test [4], 220 nM; in test [5], 260 nM; in test [6], 120 nM.

As to `COc1cc([C@@H]2c3cc4c(cc3[C@@H](NC(=O)CNC(=O)OC3CC(C)(C)N([O])C(C)(C)C3)[C@H]3COC(=O)[C@H]23)OCO4)cc(OC)c1O`, the IC50 in test [1] was 7190 nM; in test [2], 7470 nM; in test [3], 8900 nM; in test [4], 320 nM; in test [5] it was 330 nM; in test [6] it was 210 nM.

As for `COc1cc([C@@H]2c3cc4c(cc3[C@@H](NC(=O)[C@H](CCSC)NC(=O)OC3CC(C)(C)N([O])C(C)(C)C3)[C@H]3COC(=O)[C@H]23)OCO4)cc(OC)c1O`, the IC50 in test [1] is 5890 nM; in test [2], 6850 nM; in test [3] it was 7550 nM; in test [4] it was 670 nM; in test [5] it was 480 nM; in test [6], 420 nM.

In the case of `COc1cc([C@@H]2c3cc4c(cc3[C@@H](NC(=O)[C@H](Cc3ccccc3)NC(=O)OC3CC(C)(C)N([O])C(C)(C)C3)[C@H]3COC(=O)[C@H]23)OCO4)cc(OC)c1O`, the IC50 in test [1] is 7390 nM; in test [2], 6550 nM; in test [3] it was 9630 nM; in test [4] it was 210 nM; in test [5], 90 nM; in test [6] it was 210 nM.

`COc1cc([C@@H]2c3cc4c(cc3[C@@H](O[C@@H]3O[C@@H]5CO[C@@H](C)O[C@H]5[C@H](O)[C@H]3O)[C@H]3COC(=O)[C@H]23)OCO4)cc(OC)c1O` [ETOPOSIDE]: the IC50 in test [1] came to 40700 nM; in test [2], 43900 nM; in test [3], 23800 nM; in test [4] it was 420 nM; in test [5] it was 140 nM; in test [6], 290 nM.

On to `COc1cc([C@@H]2c3cc4c(cc3[C@@H](NC(=O)[C@@H](NC(=O)OC3CC(C)(C)N([O])C(C)(C)C3)C(C)C)[C@H]3COC(=O)[C@H]23)OCO4)cc(OC)c1O`, for which the IC50 in test [1] amounted to 8040 nM; in test [2], 8690 nM; in test [3], 8880 nM; in test [4] it was 240 nM; in test [5], 61 nM; in test [6], 150 nM.
